Read-outs that look alike come from different tables or passages of the source.
Assays:
[1] = tested on: HepG2 cell line; experiment: In vitro toxicity study on HepG2 cell line (resazurin, viability and IC50); format: cell-based, human; conditions: for Viability (%) at different lipid concentrations, mean: HepG2 cells, 48 h post-treatment, relative to ethanol vehicle controls; for IC50: Homo sapiens, read-out: IC50 value, μM (on HepG2 cell)
Summary of the method: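 Resazurin read-out (ex 530/em 580 nm, 5 h at 37 °C) measured lipid toxicity 48 h after dosing HepG2 cells (1000/well) at 6.25–800 μM. Viability was normalised to ethanol vehicle, and IC50 was derived from concentration-response curves.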

[2] = LNP size, PDI and zeta potential by Dynamic Light Scattering (Method A); format: physicochemical; conditions: LNP formulated with the lipid, DLS
Method: The synthesized lipids were tested in term of in vitro transfection efficacy and toxicity on HeLa cells. In order to perform the mentioned biological tests, appropriate LNPs had to be formulated from the synthesized lipids. The formulation technique was different in Method A and B. The particle size, polydispersity index (PDI) and zeta potential of resulting LNPs were determined by means of Dynamic Light Scattering technique (DLS). Prior to biological testing the encapsulation efficiency (EE) of the loaded LNPs was determined by using RiboGreen RNA assay. In case of Method A Luc mRNA while in case of Method B GFP mRNA was transfected into the cells. In parallel with the transfection experiments, toxicity of the investigated LNPs was determined, in case of Method A resazurin assay while in case of Method B MTT assay was used. Additionally, the toxicity of the lipids was investigated on HepG2 cells and IC50 values were determined.
• 1. If needed, prepare stock solutions by solving known amounts of lipid powder into an appropriate solvent. The recommended solvent is ethanol and the recommended concentration is typically in the range 10-50 mM. Higher concentrations are preferred to allow flexibility on mRNA-LNP concentration. • 2. Remove the lipid stock solutions from the −20° C. freezer. For long-term storage, −80° C. is used. • 3. Check the vials for precipitation, DOPE (CAS #4004-05-1) (20 mM) and DSPE-PEG (CAS #474922-26-4) (5 mM) may need a 5-30 minute incubation step at 37° C. with intermittent vortexing to resuspend all contents. […] As a last resort, lipids may be heated to 50° C. to resuspend, time should be kept as short as possible to prevent oxidation or other modifying or degradative processes. • 4. Mix the lipids by vortexing for 2 minutes. • 5. […] Cooling the solution prevent excessive evaporation of ethanol or similar solvents upon opening. • 6. Meanwhile, thaw the RNA samples, including the latest SecNLuc control, by inserting the frozen tube in a room temperature aluminium block. • 7. Prepare for each LNP-formulation with identical mRNA component, an RNA master mix according to Table 1 below in a fresh tube. Use of a master mix allows more precise comparison of lipid formulations relative to each other. Split the master mix over a number of fresh tubes equal to the number of samples+controls. Each tube contains 375 μl of mRNA in 10 mM Citrate pH 4.0. • 8. Prepare for each LNP formulation with identical lipid composition a Lipid master mix according to Table 1 below in a fresh tube, exclude the lipid of interest. Use of a master mix allows more precise comparison of the novel ionizable lipid relative to each other. Split the master mix over a number of fresh tubes equal to the number of samples+controls. Each tube contains 65.5 μl of lipid master mix. • 9. Add the ionizable lipid of interest to the equally divide lipid master mix. Mix well by pipetting up and down. Label the tube according to the ionizable lipid used. • 10. Power on the L1 FM (L1 Formulation Machine uses 2 high-speed syringe pumps to mix lipids in organic solvents with mRNA in acidic aquous solution to generate well-defined LNPs. The microfluidic mixing chip involves a dean-type structure performing the high-efficiency mixing at a total flow rate (TFR) of around 12 ml/min at a 3:1 mixing ratio) and allow it to do a calibration of motor positions.
• 18. Fill a fresh syringe (C) through a blunt 18G stainless steel needle with the previously prepared RNA mixture of step 6. The volume should be approximately 85% of total formulation volume+25 μl (dead-volume). Make sure to remove all air bubbles by tapping. • 19. Fill a fresh syringe (D) through a blunt 18G stainless steel needle with the Lipid master mix. The volume should be approximately […] of total formulation volume+25 μl (dead-volume). Again, Make sure to remove all bubbles. • 20. Attach the syringes in the correct orientation, syringe A on the left and syringe B on the right • 21.

[3] = lipid toxicity, HepG2, 48 h post-treatment, resazurin, 6.25-800 μM

Row | SMILES | Viability (%) at different lipid concentrations, mean ([1]; 6.25 μM lipid, resazurin) | Viability (%) at different lipid concentrations, mean ([1]; 12.5 μM lipid, resazurin) | Viability (%) at different lipid concentrations, mean ([1]; 25 μM lipid, resazurin) | Viability (%) at different lipid concentrations, mean ([1]; 50 μM lipid, resazurin) | Viability (%) at different lipid concentrations, mean ([1]; 100 μM lipid, resazurin) | Viability (%) at different lipid concentrations, mean ([1]; 200 μM lipid, resazurin) | Viability (%) at different lipid concentrations, mean ([1]; 400 μM lipid, resazurin) | Viability (%) at different lipid concentrations, mean ([1]; 800 μM lipid, resazurin) | IC50 ([1]; HepG2, 48 h) | PDI [2] | Size (nm) [2] | Zeta potential (mV) [2] | IC50 [1, 3]
1 | CCCCCCCC/C=C\CCCCCCCCOC(=O)C(C)(C)CC(OCCCCCCCC/C=C\CCCCCCCC)O[Si](C)(C)OCCCCCCN1CCCCC1 (stereo not drawn) [Example 87, (Z)-octadec-9-en-1-yl 4-((dimethyl((6-(piperidin-1-yl)hexyl)oxy)silyl)oxy)-2,2-dimethyl-4-(((Z)-octadec-9-en-1-yl)oxy)butanoate] | 101.2% | 97.0% | 97.0% | 97.8% | 97.6% | 102.1% | 73.7% | 35.2% | 625 µM | 0.06 | 101.8 nm | −12.28 mV | –
2 | CCCCC/C=C\C/C=C\CCCCCCCCOC(CCCCCCC/C=C\C/C=C\CCCCC)O[Si](C)(C)OCCCCCCN(CCO)CCO (stereo not drawn) [Example 48, (23Z,26Z)-13-((8Z,11Z)-heptadeca-8,11-dien-1-yl)-3-(2-hydroxyethyl)-11,11-dimethyl-10,12,14-trioxa-3-aza-11-siladotriaconta-23,26-dien-1-ol] | 97.4% | 102.2% | 95.7% | 97.8% | 99.6% | 101.5% | 98.4% | 68.3% | – | 0.052 | 149.6 nm | −7.501 mV | > 800 µM
3 | CCCCCCCC/C=C\CCCCCCCCOC(=O)C(C)(C)CC(OCCCCCCCC/C=C\CCCCCCCC)O[Si](C)(C)OCCCCCCN1CCOCC1 (stereo not drawn) [Example 85, (Z)-octadec-9-en-1-yl 4-((dimethyl((6-morpholinohexyl)oxy)silyl)oxy)-2,2-dimethyl-4-(((Z)-octadec-9-en-1-yl)oxy)butanoate] | 97.0% | 101.0% | 101.4% | 102.1% | 101.5% | 101.9% | 103.2% | 80.1% | – | 0.1 | 96.37 nm | −14.54 mV | > 800 µM
4 | CCCCC/C=C\C/C=C\CCCCCCCCOC(CCCCCCC/C=C\C/C=C\CCCCC)O[Si](C)(C)OCCCCCCN(CCCCO)CCCCO (stereo not drawn) [Example 62, (25Z,28Z)-15-((8Z,11Z)-heptadeca-8,11-dien-1-yl)-5-(4-hydroxybutyl)-13,13-dimethyl-12,14,16-trioxa-5-aza-13-silatetratriaconta-25,28-dien-1-ol] | 100.4% | 110.2% | 122.5% | 116.9% | 68.2% | 13.2% | −0.6% | −0.7% | – | 0.13 | 236.8 nm | −10.74 mV | 113 µM
5 | CCCCC/C=C\C/C=C\CCCCCCCCOC(CCCCCCC/C=C\C/C=C\CCCCC)O[Si](C)(C)OCCCCCCN(C)C (stereo not drawn) [Example 79, (20Z,23Z)-10-((8Z,11Z)-heptadeca-8,11-dien-1-yl)-N,N,8,8-tetramethyl-7,9,11-trioxa-8-silanonacosa-20,23-dien-1-amine] | 100.82% | 98.88% | 99.57% | 101.89% | 99.49% | 76.57% | 52.32% | 34.54% | 473 µM | 0.09 | 102.1 nm | −2425 mV | –
6 | CCCCCCCC/C=C\CCCCCCCC(OCC(CCCCCCCC)SCCCCC)O[Si](C)(C)OCCCCCCN(CCO)CCO (stereo not drawn) [Example 72, (Z)-13-(heptadec-8-en-1-yl)-3-(2-hydroxyethyl)-11,11-dimethyl-16-octyl-10,12,14-trioxa-17-thia-3-aza-11-siladocosan-1-ol] | 104.3% | 94.1% | 102.5% | 101.6% | 100.3% | 96.6% | 110.6% | 103.0% | – | 0.17 | 84.37 nm | −14.24 mV | > 800 µM
7 | CCCCC/C=C\C/C=C\CCCCCCCCOC(CCCCCCC/C=C\C/C=C\CCCCC)O[Si](C)(C)OCCCCCCN(C)CCCCO (stereo not drawn) [Example 60, (25Z,28Z)-15-((8Z,11Z)-heptadeca-8,11-dien-1-yl)-5,13,13-trimethyl-12,14,16-trioxa-5-aza-13-silatetratriaconta-25,28-dien-1-ol] | 100.0% | 99.3% | 98.4% | 107.2% | 117.1% | 101.1% | 73.6% | 35.2% | – | 0.041 | 201.0 nm | −7.785 mV | 310 µM

Reference: patent publication US20260109721A1, “IONIZABLE CATIONIC LIPIDS INCORPORATING SILICON: SYNTHESIS AND LNP FORMULATION” (priority 2023, published 2026)
